Data set [1] can be described thus: Metal passivation in experimental firerod boiler (Table IV). To be noted: 600 p.s.i., 48 hour test. An excerpt: Metal passivation studies were undertaken using an experimental firerod boiler under the following test conditions:
10 boiler water concentrations
40 ppm M alkalinity (as CaCO3)
A blank containing no oxygen scavenger was followed by test runs with hydrazine, carbohydrazide, and sodium sulfite.
*Tubes ranked by appearance of metal surface.

The conditions of data set [2]: 227-239° F.; for % O2 Removal / Final O2: initial O2 40 ppb; for Oxygen scavenging activity relative to hydrazine: Table II. On the procedure: A second more extensive group of potential oxygen scavengers were compared, again using a small laboratory boiler and oxygen saturated feed water containing sodium hydroxide. […] The hydrazine salts among this group are no less toxic than hydrazine and therefore were eliminated from further study. […] In addition, the carbohydrazide was preferred because it is a solid at room temperature and could therefore be used in dry formulations.
INITIAL SCREENING AT 227-239° F.

Data set [3] is described as follows: Carbohydrazide low temperature hydrolysis (Table V). To be noted: for ppm Hydrazine: 100 ppm hydrazine control, pH 10.25. Type of data set: physicochemical. On the procedure:
Low temperature hydrolysis studies of carbohydrazide were carried out using reagent grade carbohydrazide containing approximately 2.7±0.1% hydrazine as an impurity. A 1,000 ppm carbohydrazide solution and a 100 ppm hydrazine solution were prepared with deaerated, deionized water. Half of the carbohydrazide solution was adjusted to pH 10.2 with sodium hydroxide and the other half was left at its original pH of 6.9. The solutions were poured into Nessler tubes to overflowing and sealed with stoppers fitted with hypodermic needles to allow pressure release with minimum air contact. Four samples of both of the carbohydrazide solutions and two samples of the hydrazine control were stored at varying temperatures for varying periods of time, all as reported in Table V below.

Data set [4] is described as follows: Carbohydrazide vs. hydrazine in oxygen removal, once-through apparatus (Table III). The note with it: initial O2 7.4 ppm, 227-239° F., pH about 10.5. On the procedure:
A once-through experimental apparatus for simulating boiler water transport was utilized in this example. Water temperature in this example was maintained at about 227°-239° F. and pH at about 10.5.

The nature of data set [5]: Initial oxygen scavenger screening in laboratory boiler at 200-220° F. (Table I). Here is the method:
A small laboratory boiler was used to screen a number of potential oxygen scavengers. Oxygen saturated feed water which contained sodium hydroxide was used as the feed. The residence time for the treatment chemical was approximately 11 minutes. The boiler water temperature was maintained at between 200°-220° F. In these tests, 2% hydroquinone was used as the catalyst.
INITIAL SCREENING AT 200-220° F.

Another data set is described as follows: Solubility in water. Type of data set: physicochemical.

Like-named read-outs stand apart in the source and are kept apart here.

Regarding `NN` [Hydrazine, hydrazine, reference compound], the “Tube Rank (by appearance of metal surface)” value in data set [1] (dosage 2 ppm) came to 3. For the same compound, the “% O2 Removal” value in data set [2] is listed as 87.5%; in data set [4] (ppm scavenger/ppm O2 0.1/1), 15.4%; in data set [4] (ppm scavenger/ppm O2 0.9/1), 70.5%; in data set [4] (ppm scavenger/ppm O2 10.0/1), 99.2%. For the same compound, the “Final O2” value is given as 5 ppb in data set [2], 6.26 ppm in data set [4] (ppm scavenger/ppm O2 0.1/1), 2.18 ppm in data set [4] (ppm scavenger/ppm O2 0.9/1) and 0.06 ppm in data set [4] (ppm scavenger/ppm O2 10.0/1). Further, the “ppm Hydrazine” value in data set [3] (120° F., 6 days) was found to be 86.6 ppm; in data set [3] (180° F., 6 days), 87.6 ppm; in data set [3] (Room Temp. (77° F.), 6 days), 89.8 ppm; in data set [3] (time 0) it was 97.4 ppm. The “Loss of initial hydrazine concentration” value in data set [3] (hydrazine control, after 6 days) is “approximately 10%”.

With `O=CNNC=O` [Diformohydrazide], in data set [2], the “% O2 Removal” value was determined as 0% and the “Final O2” value is listed as 40 ppb.

Turning to Di (methylformal)diazine, in data set [2], the “% O2 Removal” value was found to be 0% and the “Final O2” value turned out to be 40 ppb.

With `NNC=O` [Formohydrazide], in data set [2], the “% O2 Removal” value was determined as 0% and the “Final O2” value was determined as 40 ppb.

`NN.O=S(=O)(O)O` [Hydrazine sulfate, Hydrazinium sulfate, reference compound]: in data set [2], the “Oxygen scavenging activity relative to hydrazine” value was “activity comparable to hydrazine”, the “% O2 Removal” value was found to be 87.5% and the “Final O2” value came out at 5 ppb. Besides, in data set [5] (dosage 500 ppb, pH 10.5, initial O2 40 ppb, 2% hydroquinone catalyst), the “Final O2” value came to 10 ppb.

Consider `NNC(=O)C(=O)NN` [Oxalic dihydrazide], for which the “Solubility in water (Table II)” value in “Solubility in water” is “Insoluble In Water”.

With `COC(=O)NNC(=O)OC` [Dimethyldihydrazodicarboxylate], in data set [2], the “% O2 Removal” value amounted to 50% and the “Final O2” value amounted to 20 ppb.

Turning to `O=S([O-])[O-].[Na+].[Na+]` [Na2 SO3, sodium sulfite, reference compound], in data set [1] (dosage 20-40 ppm residual), the “Tube Rank (by appearance of metal surface)” value is 2. In data set [5] (dosage 400 ppb, pH 9.65, initial O2 40 ppb), the “Final O2” value is given as “.005 ppb”.

For `NN.NN.O=S(O)O` [Hydrazinium sulfite, reference compound], in data set [2], the “Oxygen scavenging activity relative to hydrazine” value is reported as “activity comparable to hydrazine” and the “Final O2” value is 5 ppb.

For the compound `O=C(O)NNC(=O)O` [Disodiumdihydrazodicarboxylate], in data set [2], the “Oxygen scavenging activity relative to hydrazine” value was “activity comparable to hydrazine”, the “% O2 Removal” value worked out at 75% and the “Final O2” value was 10 ppb.

The values above are taken from patent US4269717A, “Boiler additives for oxygen scavenging” (priority 1980, dated 1981).
